The record followed here is a melting point compilation (Tetko et al.; mined from patent text by program, amines drawn as free bases though some values may be those of a salt).

Molecules are shown by their SMILES. Non-standard residues stand in square brackets, D forms with d. Residues, ends and D or L forms follow the SMILES beside them. ξ: configuration not given here. *: point of attachment. ξF = NC(Cc1ccccc1)C(=O)O; Boc = CC(C)(C)OC(=O)* Some results are limits rather than exact numbers.

`Cc1cn(C2CCN(c3c(F)cc4c(=O)c(C(=O)O)cn5c4c3OCC5C)C2)nn1` (single isomer, unassigned; (-)) returned a melting point of 241 to 242 °C. The result for `Cc1cc(C(=O)C(F)(F)F)ccc1NC(=O)OC(C)(C)C` reads 85 to 87 °C; that for `CC(C)(O)c1ccc(-c2cnc3c(n2)N(CC2CCOCC2)CC(=O)N3)cn1`, 268 to 269 °C; that for `Cc1ccc(C(=O)c2cc(C)n(C)c2)cc1`, 117 to 119 °C.

Molecule `OC(CN1CCN(Cc2ccc(F)cc2)CC1)Cn1c2ccccc2c2cc(-c3ccccc3)ccc21` (configuration not stated) yielded a melting point of 188 °C. The result for `O=S(=O)(C(=CNc1ccccc1C(F)(F)F)S(=O)(=O)c1ccc(Cl)cc1)c1ccc(Cl)cc1` reads 169 to 171 °C; that for `Brc1ccc(-c2ccc(-c3ccc(Br)s3)c3nsnc23)s1`, 247 to 248 °C. To `O=C(Nc1cccc(Cl)c1)c1nc(-c2ccccc2)c2ccccc2c1O` belongs 195 to 197 °C; to `Nc1ncc(CCN2CCC(C(=O)c3ccc(F)cc3)CC2)c(O)n1`, 256 °C; to `CCc1nc2c(N)nc3cc(CCC(=O)N(C)C)ccc3c2n1CC(C)(C)O`, 234 to 237 °C. To `COc1ccc(CC2CCc3ncc(C)cc3C2=O)cc1` (configuration not stated) belongs 92 to 93 °C; to `CC(=O)Nc1ccc(OCC2CCN(c3ccncc3)CC2)cc1`, 226 to 228 °C. In turn, `Cc1onc(NS(=O)(=O)c2ccccc2-c2ccc(-c3ncco3)cc2CN(C)C(=O)CC(C)(C)C)c1C` registered a melting point of 120 to 128 °C. With `Nc1nc(=O)c2ncn(C3OC4COP(=O)(O)OC4C3O)c2[nH]1` (configuration not stated), the melting point is 91.6 to 93.7 °C. The result for `CCCCN1CC[C@@H](CNC(=O)c2cc(Cl)c(N)c3c2OCCO3)[C@H](O)C1` (relative stereo) reads 122 °C; that for `CS(=O)(=O)c1ccc(-c2cnn(CC(F)(F)F)c(=O)c2N2CCCCC2)cc1`, 160 to 161 °C. `CCOc1ccc(-c2ccc(Br)cc2)cc1` showed a melting point of 139 °C. The result for `S=C1Nc2ccccc2Sc2nccn21` reads 156 to 159 °C; that for `Cc1c2n(c3ccccc13)C(=O)C(C(O)c1cccnc1)CC2` (configuration not stated), 83 to 86 °C; that for `CN(C)C(=O)n1nc(C(C)(C)C)cc1S(C)=O` (configuration not stated), 95 to 96 °C. The result for `CCOC(=O)c1cc2c(C(F)(F)F)cc(OCC(=O)O)cc2n1C` reads 200 to 202 °C; that for `COc1c(O)cc(C(C)(C)C)c(O)c1C(=O)Nc1ccc(S(=O)(=O)C(F)(F)F)cc1Cl`, 171 to 175 °C; that for `COc1ccc(CCNCC(O)c2ccc(OCc3ccccc3)cc2OCc2ccccc2)cc1OC` (configuration not stated), 116 to 117 °C.

`CC1(C)CCCC(C)(C)N1Cc1ccc2cc(NC(=O)c3ccc(-c4ccc(F)cc4)cc3)ccc2c1` had a melting point of 238 to 241 °C. `CC(C)(C)C(=O)COc1ccc(S(=O)(=O)c2ccccc2)cc1` returned a melting point of 105 to 108 °C. Take `O=C(O)c1cccc(C(=O)Nc2ccc(-n3nc(C(F)(F)F)cc3C(F)(F)F)cc2)c1`: the melting point lay in the range of 244 to 245 °C.

With `Cc1cc(Oc2cccc(C(F)(F)F)c2)nn1C(=O)Nc1ccc(C(F)(F)F)cc1`, the melting point fell in the range of 82 to 84 °C. The result for `OCc1ccc2cc(O)ccc2c1` reads 179 to 181 °C; that for `COc1ccccc1N1CCN(CCCNC(=O)c2cccc3c(=O)c(C)c(C4CCCC4)oc23)CC1`, 135 to 137 °C. To `ClCCC(=C(c1ccccc1)c1ccc(OCCN2CCCC2)cc1)c1ccccc1` belongs 112 to 115 °C. To `CON(C)C(=O)c1cc(-c2ccccc2)n[nH]1` belongs 135 to 138 °C; to `O=C(N[C@@H](CN1CCC(=C2c3ccccc3C=Cc3ccccc32)CC1)C(=O)O)OCc1ccccc1`, 178 to 179 °C. Consider `CCCCCCCCCCOc1ccc([N+](=O)[O-])cc1OCCCCCCCCCC`, for which the melting point lay in the range of 60 to 61 °C.

On to `Cc1cn2nc(-c3ccccc3)nc2cc1N`, for which the melting point was more than 250 °C. The result for `COc1cc(OCc2ccccn2)ccc1/C=C/c1cc(/C=C/c2ccc3ccn(C(C)=O)c3c2)n[nH]1` reads 182 to 187 °C; that for `CC(=O)OC1=C([C@H]2CC[C@H](c3ccc(Cl)cc3)CC2)C(=O)c2ccccc2C1=O`, 149 to 152 °C; that for `CS(=O)(=O)OC1CCN(c2ccc(N)cc2)C1` (configuration not stated), 203 °C. To `NC(=O)NN=Cc1ccc(Oc2ccc(F)cc2)c(F)c1` belongs 233 to 234 °C; to `Cc1cc(C)cc(NCc2ccc3nc(NC4CCN(CC(N)=O)CC4)n(Cc4nc(C)ccc4O)c3c2)c1`, 206 °C.

Molecule `COC(=O)Cn1nnc(NC(=O)C(c2ccccc2)c2ccccc2)n1` registered a melting point of 168 to 169 °C. The result for `O=C(C1CC1)N1CCN(C(=O)c2cc(C(F)(F)F)cc(C(F)(F)F)c2)[C@H](Cc2c[nH]c3ccccc23)C1` reads 109 to 114 °C; that for `Nc1cc(-n2cc(C(=O)O)c(=O)c3cc(F)c(N4CC(N)C4)c(Cl)c32)ncc1F`, 280 °C; that for `COCC(C)n1nc(-c2c(-c3ccccc3)nn3ccc(OC)cc23)ccc1=O` (configuration not stated), 138 to 139 °C. The result for `Nc1cccc2c1ccn2-c1ccnc(N[C@H]2CC[C@H](O)CC2)n1` reads 219 to 220 °C; that for `C=CCOc1cccn2c(=O)cc(C)nc12`, 113 to 115 °C; that for `O=C1c2ccccc2S(=O)(=O)N1CBr`, 155 to 157 °C.

`COC(=O)C(=C/c1ccccc1)/C(=C\c1cc(OC)c(OC)c(OC)c1)C(N)=O` gave a melting point of 121 to 122 °C. The result for `COc1ccc(OC)c2c1C[C@@H](O)[C@H](NC(C)C)C2` (relative stereo) reads 144 to 145 °C; that for `Cc1ccc(CCCO)c(NCc2ccc3nc(NCCCN4CCOCC4)n(Cc4cc(Br)ccc4O)c3c2)c1`, 134 °C.

`COC(=O)c1ccc(Cl)c(O)c1`: the melting point lay in the range of 100 to 101 °C. To `Cc1sc(CO)c(C)c1Br` belongs 85 to 90 °C; to `CCOC(=O)C(=O)Nc1cc(=O)c2ccccc2o1`, 167 to 169 °C. The result for `Clc1cccc(CCC2(Cn3ccnc3)SCCS2)c1` reads 224 to 227 °C; that for `CN1C(=O)N(c2nnc(C(C)(C)C)s2)C(=O)C1O` (configuration not stated), 163 to 164 °C; that for `Cc1cc(C2=NOC(c3cc(Cl)cc(Cl)c3)(C(F)(F)F)C2)ccc1C(=O)NC1CCCO1` (configuration not stated), 144 to 147 °C. To `Cc1cc(NC(=O)C(=O)N2C(C)CCCC2C)cc(C)c1S(=O)(=O)C[N+](=O)[O-]` (configuration not stated) belongs 192 to 193 °C.

Molecule `O=C(Nc1cccc(Cl)c1C(=O)O)c1ccc(F)cc1` yielded a melting point of 228 to 233 °C.

`O=CC1=CC2=C(OC1)c1ccccc1S(=O)(=O)N2` returned a melting point of 108 to 110 °C.

`CCCCCOc1ccc(C#N)cc1-c1cc(C(=N)Nc2cccc(C(F)(F)F)c2)ccc1OCCCCC` yielded a melting point of 74 to 75 °C. The molecule `Cc1ccc(C(=O)Nc2c[nH]nc2C(=O)NCCO)cn1` gave a melting point of 233 to 235 °C. To `O=P(c1ccccc1)(c1ccc(F)cc1)c1ccc(F)cc1` belongs 103 to 105 °C; to `CNC(=O)C(Cc1ccccc1)NC(=O)CNC(=O)OC(C)(C)C` (stereo not drawn) (Boc-Gly-[ξF]-NHMe), 158 to 160 °C. On to `COC(=O)c1sc(C)c(Br)c1OC(=S)N(C)C`, for which the melting point lay in the range of 152 to 154 °C. In turn, `COc1ccc(C(=O)CN(Cc2ccccc2)Cc2ccccc2)cc1C(N)=O` had a melting point of 113 to 114 °C. To `COC(=O)C(OC)Oc1ccc(C2CCN(c3ccncc3)CC2)cc1` (configuration not stated) belongs 127 to 129 °C. To `COc1ccn(-c2nc(C)c(C(=O)NCc3cccnc3)s2)c(=O)c1` belongs 200 to 202 °C; to `Cn1cc(-c2ccccc2)c(=O)c(-c2cccc(F)c2)c1`, 134 °C. To `c1ccc(N2CNCC23CCN(C2CCc4ccccc42)CC3)cc1` (racemic) belongs more than 250 °C; to `CN1C(=O)C(NS(=O)(=O)CC23CCC(CC2=O)C3(C)C)N=C(c2ccccc2)c2ccccc21` (configuration not stated), 204 to 206 °C. Regarding `CN(C)c1c(SC(F)(F)F)c(C#N)nn1-c1c(Cl)cc(C(F)(F)F)cc1Cl`, the melting point lay in the range of 110 to 111 °C. To `Clc1ccc(Cl)n2nc(SCc3ccccc3)nc12` belongs 103 to 104 °C; to `C[C@@H](c1ccc(-c2ccc(C#N)cn2)cc1)N1CC[C@](CC(C)(C)O)(c2ccccc2)OC1=O`, 160 to 162 °C.

`CCOc1nn(-c2ccc(C(F)(F)F)cn2)cc1CCOc1cc(CC(=O)O)n(C)n1`: the melting point is 156 to 158 °C.

`NCC(C(=O)O)c1c[nH]c2cc(Cl)ccc12` (configuration not stated) displayed a melting point of 245 to 247 °C. To `Cc1c(C)c2c3c(cc(C)c2[nH]c1=O)CC(CN=[N+]=[N-])O3` (configuration not stated) belongs 187 to 189 °C; to `CCOCc1nc2c(N)nc(C)cc2n1CCOCc1ccccc1`, 127 to 128 °C; to `COc1cc(N)ccc1S(=O)(=O)n1c(=O)n(C2CCCCCC2)c2cc(Cl)ccc21`, 219 °C. `CCOC(=O)c1c(C2CCN(C)CC2)[nH]c(-c2ccc(F)c(F)c2)c1-c1ccncc1` had a melting point of 262 to 265 °C. To `Clc1ccc(-c2ccc[nH]2)cc1Cl` belongs 49 to 51 °C; to `CC(=O)NC[C@H]1CN(c2ccc(N3CCC(=O)N(C)CC3)c(F)c2)C(=O)O1`, 203 to 204 °C; to `CCOc1c2ccccc2c(C=O)c2ccccc12`, 88 to 90 °C.

`CC(C)CC(=O)Nc1cccc(-c2ccnc3c(-c4cccc(Cl)c4Cl)cnn23)c1`: the melting point fell in the range of 154 to 156 °C. In turn, `O=[N+]([O-])c1nccn1CC(O)CN1CCCCC1` (configuration not stated) yielded a melting point of 108 to 109 °C.

`COc1cccc2[nH]cc(C3CN4CCC3CC4)c12` (configuration not stated) yielded a melting point of 193 to 195 °C.

As for `CC(C)(C)C(O)(C=Cc1ccc(Cl)cc1)Cn1ccnc1` (configuration not stated), the melting point was 139 to 141 °C. The result for `O=C(NC(=O)c1ccccc1Cl)Nc1ccc(F)c(C(F)(F)F)c1Cl` reads 208 °C; that for `COc1cc(OC)c(-c2cccs2)cc1/C=C/C(=O)c1ccc(S(=O)(=O)Nc2nccs2)cc1`, 220 to 221 °C.
